Data on six molecules can be found in ChEMBL document CHEMBL1146588, “Ancistrotanzanine A, the first 5,3'-coupled naphthylisoquinoline alkaloid, and two further, 5,8'-linked related compounds from the newly described species Ancistrocladus tanzaniensis” (J Nat Prod, 2003).

One data set has as its system Leishmania donovani. The experiment in a line: Antileishmanial activity against Leishmania donovani. It is filed as functional, organism-based.
The test system of data set [1] is Plasmodium falciparum. The experiment in a line: Antimalarial activity against Plasmodium falciparum 3D7. It is filed as functional, organism-based.
Data set [2] has as its system Plasmodium falciparum. The experiment in a line: Antimalarial activity against Plasmodium falciparum K1. It is filed as functional, organism-based.
The next data set relates to Trypanosoma cruzi. Put plainly: Antitrypanosomal activity against Trypanosoma cruzi. The format is functional, organism-based.
The nature of data set [3]: Cytotoxicity against rat L6 cells. The note with it: read-out: MIC. The format is cell-based.
For data set [4], the system named is Trypanosoma brucei rhodesiense. Put plainly: Antitrypanosomal activity against Trypanosoma brucei rhodesiense. It is filed as functional, organism-based.

Usually IC50 stands for the concentration that gives 50% inhibition.

SMILES strings stand for the structures. In brackets after ≈: the same amount, converted by molar mass. Where only a bound is given, the exact number is not on record here.

`CCCCCCCCCCCCCCCCOP(=O)([O-])OCC[N+](C)(C)C` [MILTEFOSINE] displayed an IC50 in the data set on Leishmania donovani of 0.305 µg/mL (≈ 0.748 µM).

As to `COc1cc(OC)c(-c2ccc(OC)c3c(OC)cc(C)cc23)c2c1C(C)=N[C@@H](C)C2` [ANCISTROEALAINE A], the IC50 in the data set with Plasmodium falciparum [1] came out at 5 µg/mL (≈ 11.9 µM); in the data set with Leishmania donovani, 1.6 µg/mL (≈ 3.81 µM); in the data set with Plasmodium falciparum [2], 0.3 µg/mL (≈ 0.715 µM); with Trypanosoma cruzi, 1.5 µg/mL (≈ 3.58 µM); in data set [4] it was 0.7 µg/mL (≈ 1.67 µM). The MCC in data set [3] came to 8.1 µg/mL.

`COc1cc(OC)c(-c2c(C)cc3cccc(OC)c3c2O)c2c1C(C)=N[C@@H](C)C2` [ANCISTROTANZANINE A]: the IC50 with Leishmania donovani turned out to be 1.8 µg/mL (≈ 4.44 µM); in the data set with Plasmodium falciparum [2], 0.3 µg/mL (≈ 0.74 µM); with Trypanosoma cruzi it was 1.7 µg/mL (≈ 4.19 µM); in data set [4], 0.7 µg/mL (≈ 1.73 µM). In data set [3], the MCC was determined as 6.4 µg/mL.

As to `COc1cc(OC)c2c(c1-c1ccc(OC)c3c(OC)cc(C)cc13)C[C@H](C)N[C@H]2C` [ANCISTROTECTORILINE A], the IC50 was 14 µg/mL (≈ 33.2 µM) in the data set on Plasmodium falciparum [1]; more than 10 µg/mL in the data set with Leishmania donovani; 0.5 µg/mL (≈ 1.19 µM) in the data set with Plasmodium falciparum [2]; 17.8 µg/mL (≈ 42.2 µM) in the data set on Trypanosoma cruzi; 2.1 µg/mL (≈ 4.98 µM) in data set [4]. In addition, the MCC in data set [3] was 6.5 µg/mL.

`O=C(Cn1ccnc1[N+](=O)[O-])NCc1ccccc1` [BENZNIDAZOLE] yielded an IC50 in the data set with Trypanosoma cruzi of 0.42 µg/mL (≈ 1.61 µM).

As to `Nc1nc(N)nc(Nc2ccc([As]3SCC(CO)S3)cc2)n1` (stereo not given) [MELARSOPROL], the IC50 in data set [4] turned out to be 0.001 µg/mL.
